Experiments:
Test in all cases: Glasshouse herbicide test, pre- and post-emergence, percentage damage
Type in all cases: in vivo
Avena fatua (AVEFA) = details: 250 g/h, evaluated after 13 days, percentage damage on five point scale; for AVEFA POST: post-emergence; for AVEFA PRE: pre-emergence
Description: (§1) Seeds of a variety of test species are sown in standard soil in pots (Lolium perenne (LOLPE), Setaria faberi (SETFA), Alopecurus myosuroides (ALOMY), Echinochloa crus-galli (ECHCG), Avena fatua (AVEFA)). After cultivation for one day (pre-emergence) or after 8 days cultivation (post-emergence) under controlled conditions in a glasshouse (at 24/16° C., day/night; 14 hours light; 65% humidity), the plants are sprayed with an aqueous spray solution derived from the formulation of the technical active ingredient in acetone/water (50:50) solution containing 0.5% Tween 20 (polyoxyethelyene sorbitan monolaurate, CAS RN 9005-64-5). Compounds are applied at […]. The test plants are then grown in a glasshouse under controlled conditions in a glasshouse (at 24/16° C., day/night; 14 hours light; 65% humidity) and watered twice daily. After 13 days for pre and post-emergence, the test is evaluated for the percentage damage caused to the plant. The biological activities are shown in the following table on a five point scale (5=80-100%; 4=60-79%; 3=40-59%; 2=20-39%; 1=0-19%).

[1] = tested on: Alopecurus myosuroides (ALOMY); details: 250 g/h, evaluated after 13 days, percentage damage on five point scale; for ALOMY POST: post-emergence; for ALOMY PRE: pre-emergence
Description: as §1

Lolium perenne (LOLPE) = details: 250 g/h, evaluated after 13 days, percentage damage on five point scale; for LOLPE POST: post-emergence; for LOLPE PRE: pre-emergence
Description: as §1

Setaria faberi (SETFA) = details: 250 g/h, evaluated after 13 days, percentage damage on five point scale; for SETFA POST: post-emergence; for SETFA PRE: pre-emergence
Description: as §1

[2] = tested on: Echinochloa crus-galli (ECHCG); details: 250 g/h, evaluated after 13 days, percentage damage on five point scale; for ECHCG POST: post-emergence; for ECHCG PRE: pre-emergence
Description: as §1

Structure (SMILES) | AVEFA POST (Avena fatua (AVEFA)) | AVEFA PRE (Avena fatua (AVEFA)) | ALOMY POST [1] | ALOMY PRE [1] | LOLPE POST (Lolium perenne (LOLPE)) | LOLPE PRE (Lolium perenne (LOLPE)) | SETFA POST (Setaria faberi (SETFA)) | SETFA PRE (Setaria faberi (SETFA)) | ECHCG POST [2] | ECHCG PRE [2]
COCC(=O)N1CCC2(CC1)CC(=O)C(c1c(C)cc(-c3ccc(C#N)cn3)cc1C)C(=O)C2 [Compound A25] | 5 (5=80-100%) | 5 (5=80-100%) | 5 (5=80-100%) | 5 (5=80-100%) | 5 (5=80-100%) | 5 (5=80-100%) | 5 (5=80-100%) | 5 (5=80-100%) | 5 (5=80-100%) | 5 (5=80-100%)
CON1CCC2(CC1)CC(=O)C(c1c(C)cc(-n3cc(Cl)cn3)cc1C)C(=O)C2 [Compound A5] | 5 (5=80-100%) | 5 (5=80-100%) | 5 (5=80-100%) | 5 (5=80-100%) | 5 (5=80-100%) | 5 (5=80-100%) | 5 (5=80-100%) | 5 (5=80-100%) | 5 (5=80-100%) | 5 (5=80-100%)
Cc1cc(-c2ncc(F)cn2)cc(C)c1C1C(=O)CC2(CCN(C(=O)C(C)(C)C)CC2)CC1=O [Compound A40] | 5 (5=80-100%) | 5 (5=80-100%) | 5 (5=80-100%) | 5 (5=80-100%) | 5 (5=80-100%) | 5 (5=80-100%) | 5 (5=80-100%) | 5 (5=80-100%) | 5 (5=80-100%) | 5 (5=80-100%)
Cc1cc(-c2ccc(C#N)cn2)cc(C)c1C1C(=O)CC2(CCN(C(=O)NC(=O)C(C)(C)C)CC2)CC1=O [Compound A27] | 1 (1=0-19%) | 2 (2=20-39%) | 5 (5=80-100%) | 4 (4=60-79%) | 5 (5=80-100%) | 4 (4=60-79%) | 5 (5=80-100%) | 5 (5=80-100%) | – | 5 (5=80-100%)
CC(=O)N1CCC2(CC1)CC(=O)C(c1c(C)cc(-c3ccc(F)cn3)cc1C)C(=O)C2 [Compound A46] | 5 (5=80-100%) | 5 (5=80-100%) | 5 (5=80-100%) | 5 (5=80-100%) | 5 (5=80-100%) | 5 (5=80-100%) | 5 (5=80-100%) | 5 (5=80-100%) | 5 (5=80-100%) | 5 (5=80-100%)
COc1cc(-c2ncc(F)cn2)cc(OC)c1C1C(=O)CC2(CCN(OC)CC2)CC1=O [Compound A8] | 5 (5=80-100%) | 5 (5=80-100%) | 5 (5=80-100%) | 5 (5=80-100%) | 5 (5=80-100%) | 5 (5=80-100%) | 5 (5=80-100%) | 5 (5=80-100%) | 5 (5=80-100%) | 5 (5=80-100%)
Cc1cc(-c2ccc(C#N)cn2)cc(C)c1C1C(=O)CC2(CCN(C(=O)C3CC3)CC2)CC1=O [Compound A28] | 5 (5=80-100%) | 5 (5=80-100%) | 5 (5=80-100%) | 5 (5=80-100%) | 5 (5=80-100%) | 5 (5=80-100%) | 5 (5=80-100%) | 5 (5=80-100%) | 5 (5=80-100%) | 5 (5=80-100%)
Cc1cc(-c2ccc(F)cc2)cc(C)c1C1C(=O)CC2(CCN(C(=O)NC(=O)C(C)(C)C)CC2)CC1=O [Compound A58] | 5 (5=80-100%) | 4 (4=60-79%) | – | 5 (5=80-100%) | 5 (5=80-100%) | 5 (5=80-100%) | 5 (5=80-100%) | 5 (5=80-100%) | 5 (5=80-100%) | 5 (5=80-100%)
COc1cc(-c2ccc(F)cc2)cc(C)c1C1C(=O)CC2(CCN(C(=O)C3CC3)CC2)CC1=O [Compound A70] | 5 (5=80-100%) | 5 (5=80-100%) | – | – | 5 (5=80-100%) | 5 (5=80-100%) | 5 (5=80-100%) | 5 (5=80-100%) | 5 (5=80-100%) | 5 (5=80-100%)
COc1cc(-c2ccc(F)cc2)cc(C)c1C1C(=O)CC2(CCN(C(=O)NC(C)(C)C)CC2)CC1=O [Compound A68] | 5 (5=80-100%) | 4 (4=60-79%) | – | – | 5 (5=80-100%) | 4 (4=60-79%) | 5 (5=80-100%) | 5 (5=80-100%) | 5 (5=80-100%) | 5 (5=80-100%)

— patent US11980188B2, “Spiro cyclohexanedione derivates as herbicides” (SYNGENTA PARTICIPATIONS AG, priority 2018, dated 2024)
